{
  "source": "patent US8106155B2",
  "about": "“Test kit for determining process for determining antibiotics containing a beta-lactam ring in a biological fluid” (Neogen Corporation, priority 1998, dated 2012)",
  "key": {"[1]": {"biological_target": "T1, BlaR-CTD receptor in the form of two fusion proteins with alkaline phosphatase and peroxidase (Bacillus licheniformis, UniProt P12287)", "T1 construct": "uses the BlaR-CTD receptor in the form of two fusion proteins with alkaline phosphatase and peroxidase, respectively; alkaline phosphatase, chemically coupled (Boehringer-Mannheim 1464752); peroxidase, chemically coupled (Boehringer-Mannheim 1428861)", "assay": "Example 3: BlaR-CTD fusion proteins with alkaline phosphatase and peroxidase, cephalosporin C microplate, milk", "assay_type": "binding", "conditions": "absorbance at 405 nm, 47° C., at the control thresholds required by the US authorities", "excerpt": "This example illustrates the detection in milk of 3 antibiotics containing a β-lactam ring which are controlled by the health authorities. The test described in this example uses the BlaR-CTD receptor in the form of two fusion proteins with alkaline phosphatase and peroxidase, respectively, and uses a support in the form of a microplate.\nPolystyrene microplates with high protein adsorption, of the brand name NUNK (Immuno Plate: Maxisorp type) or of the brand name GREINER (microlon 600, reference 705071), are used. The microplate cuvettes are washed with 150 mM, pH 7.2 PBS buffer. Next, an aliquot of the solution prepared in Example 3.3.1. is incubated for 24 hours at 4° C. in the cuvettes. After incubation, the cuvettes are washed three times with 150 mM, pH 7.2 PBS buffer, 0.1% Tween-20. The tube is then saturated for two hours at 20° C. with 150 mM, pH 7.2 PBS saturation buffer, 5% BSA. After washing three times with washing buffer, the tubes are dried and stored at 4° C. away from moisture.\nFor the cuvettes intended for the BlaR-CTD-alkaline phosphatase recognition agent, the washing buffer used is 1 M, pH 9.8 diethanolamine, 0.5 mM MgCl2: for the cuvettes intended for the BlaR-CTD-peroxidase recognition agent, the washing buffer used is 50 mM, pH 5 potassium phosphate.\n1.4 picomol of labelled recognition agent are incubated in the presence of 100 μl of doped milk for 5 minutes at 47° C. The milk is transferred using a pipette into a cuvette which has been pretreated as indicated in Example 2.3. The milk is then incubated for 2 minutes at 47° C. […] The plate is then placed in an automatic spectrophotometer for ELISA plates, the wavelength being set at 405 nm."}, "[2]": {"biological_target": "T2, BlaR-CTD-β-lactamase fusion protein (UniProt P04190+P12287)", "T2 construct": "made in house; host or cells: E. coli", "T2 sequence (P12287+P04190 with tags, fused parts or gaps)": "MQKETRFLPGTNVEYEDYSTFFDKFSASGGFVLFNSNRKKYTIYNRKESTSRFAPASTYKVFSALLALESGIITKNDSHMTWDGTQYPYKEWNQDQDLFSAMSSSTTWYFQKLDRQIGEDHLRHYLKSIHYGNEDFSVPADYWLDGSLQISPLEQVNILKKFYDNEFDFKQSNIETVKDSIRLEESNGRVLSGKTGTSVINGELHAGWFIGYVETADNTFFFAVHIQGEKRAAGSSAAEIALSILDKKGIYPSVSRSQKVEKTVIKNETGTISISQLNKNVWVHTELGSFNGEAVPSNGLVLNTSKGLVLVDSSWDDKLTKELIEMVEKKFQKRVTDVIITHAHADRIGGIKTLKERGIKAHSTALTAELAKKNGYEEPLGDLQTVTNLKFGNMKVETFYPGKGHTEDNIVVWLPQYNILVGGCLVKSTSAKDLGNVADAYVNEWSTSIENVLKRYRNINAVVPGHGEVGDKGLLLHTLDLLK", "assay": "Example 2: BlaR-CTD-β-lactamase fusion protein with cephalosporin C magnetic beads, milk", "assay_type": "binding, Bacillus licheniformis", "conditions": "nitrocefine absorbance at 482 nm, 47° C., detection at concentrations below the US standards listed", "excerpt": "This example illustrates the detection in milk of the 6 antibiotics containing a β-lactam ring which are controlled by the US authorities. The test described in this example uses the BlaR-CTD receptor in the form of a fusion protein with β-lacatamase and uses a support in the form of magnetic beads.\nThe BlaR-CTD-β-lactamase fusion protein is obtained by genetic coupling between the BlaR-CTD receptor (B. Joris et al., FEMS Microbiology Letters, 107-114, 1990) and Zn β-lactamase from Bacillus cereus (M. Hussain et al., 1985, J. Bact., 164:1, 223-229, 1985).\nBioMag 4100 particles (available from DRG Instrument GmbH, Marburg, Germany, under the reference AM 4100 B) are used, the NH2 ends of which have been activated with glutaraldehyde in the following way: • one volume of initial solution of BioMag 4100 particles is rinsed 4 times with 5 volumes of 0.01M pH 6.0 pyridine buffer. The particles are taken up in 2.5 volumes of glutaraldehyde at 5% in pyridine buffer and are agitated by rotation for 3 hours at room temperature. They are then rinsed 10 times with 2 volumes of 0.01 M pH 7.0 Kpi buffer. The particles are then resuspended in 1 volume of 0.1 M cephalosporin C in Kpi buffer and are agitated by rotation overnight at +4° C. The final rinsing is carried out until the cephalasporin C has been completely removed from the 0.1 M pH 7.0 Kpi buffer. 2.3. Determination of the 6 Antibiotics Penicillin G, Ampicillin, Amoxicillin, Cloxacillin, Cephapirin and Certiofur in Milk. […]\n50 μl of solution 1 are placed in the presence of […] of doped milk samples and incubated at 47° C. for 2 minutes. […] The absorbance of the residual solution at 482 nm is then measured relative to the nitrocefine solution."}},
  "data": [
    {"smiles": "CO/N=C(\\C(=O)N[C@@H]1C(=O)N2C(C(=O)O)=C(CSC(=O)c3ccco3)CS[C@H]12)c1csc(N)n1", "note": "[ceftiofur]", "values": [
      {"measurement": "concentration detected in milk", "setting": "[1]", "result": 50, "unit": "ppb"},
      {"measurement": "concentration detected in milk", "setting": "[2]", "result": "< 50", "unit": "ppb"}
    ]},
    {"smiles": "CC1(C)S[C@@H]2[C@H](NC(=O)Cc3ccccc3)C(=O)N2[C@H]1C(=O)O", "note": "[penicillin G]", "values": [
      {"measurement": "concentration detected in milk", "setting": "[1]", "result": 5, "unit": "ppb"},
      {"measurement": "concentration detected in milk", "setting": "[2]", "result": "< 5", "unit": "ppb"}
    ]},
    {"smiles": "CC(=O)OCC1=C(C(=O)O)N2C(=O)[C@@H](NC(=O)CSc3ccncc3)[C@H]2SC1", "note": "[cephapirin]", "values": [
      {"measurement": "concentration detected in milk", "setting": "[2]", "result": "< 20", "unit": "ppb"}
    ]}
  ]
}
